Among the data in a melting point compilation (Tetko et al.) are melting point values, retold here.

Compound `COc1ccccc1NS(=O)(=O)c1cc(N)ccc1N1CCOCC1` had a melting point of 197 to 199 °C.

Consider `NS(=O)(=O)c1ccc(Cl)c(C(=O)O)c1`, for which the melting point fell in the range of 219 to 221 °C.

Take `O=c1[nH]c2c(c(=O)[nH]1)CCCC2`: the melting point fell in the range of 304 to 306 °C.

In the case of `Nc1ccc(=O)n(Cc2ccc(Cl)c(Cl)c2)c1`, the melting point was 131 to 133 °C.

For the compound `CCOC(=O)c1ccc(S(=O)(=O)N2CCNCC2)cc1`, the melting point lay in the range of 94 to 96 °C.

In the case of `NC(COC1CCOCC1)=NO`, the melting point fell in the range of 79 to 81 °C.

`CN(C)S(=O)(=O)c1ccc(NC(=O)CCCl)cc1` displayed a melting point of 159 to 161 °C.

Regarding `Nc1cccc2c1C(=O)N(C1CC1)C2=O`, the melting point was in the range of 159 to 161 °C.

As for `N#Cc1cc(Cl)ccc1CO`, the melting point was 99 to 101 °C.

Compound `Cc1nn(-c2ccccc2)c(C(F)(F)F)c1C(=O)O` had a melting point of 146 to 148 °C.

`Nc1cc(-c2ccc(I)cc2)no1` had a melting point of 159 to 161 °C.

As for `Cc1c(-c2ccccc2)sc(N)c1C(=O)N1CCOCC1`, the melting point lay in the range of 187 to 189 °C.

`Cc1ccc(N2C(=O)Cc3ccccc3C2=O)cc1`: the melting point was 173 to 175 °C.

On to `O=C(O)c1ccc2c(=O)n(-c3cccc(Cl)c3)c(=O)[nH]c2c1`, for which the melting point was in the range of 365 to 367 °C.

Compound `ClCc1csc(Cc2ccc(Cl)cc2)n1` came in with a melting point of 68 to 70 °C.

In turn, `Cc1cc(C(=O)c2cccnc2)ccc1F` had a melting point of 86 to 88 °C.

`CCn1c(C)nc2cc(C(=O)NN)ccc21` came in with a melting point of 183 to 185 °C.

Take `Cc1c(C(=O)O)nnn1-c1ccc2ncccc2c1`: the melting point was in the range of 219 to 221 °C.

Consider `O=C1CC(C(=O)O)c2ccc(F)cc2N1` (stereo unspecified), for which the melting point was in the range of 214 to 216 °C.

The compound `CCC(CC)n1nc(C)cc1C(=O)O` yielded a melting point of 149 to 151 °C.

`O=C(O)COc1cccc(C(F)(F)F)c1`: the melting point is 85 to 87 °C.

`CC(C)(C)c1ccc2c(c1)C(O)CC2` (stereo unspecified) yielded a melting point of 73 to 75 °C.

Turning to `O=[N+]([O-])c1cnc2c(c1)CCCC2`, the melting point was 71 to 73 °C.

The compound `NC(=O)CCc1ccc(N)cc1` returned a melting point of 131 to 133 °C.

`Nc1nncc(-c2ccccc2)n1` displayed a melting point of 235 to 237 °C.

Compound `O=C1CCC(O)(c2cccc(Cl)c2)CC1` registered a melting point of 119 to 121 °C.

On to `Cc1cc(NC(=O)C(Br)C(C)C)no1` (stereo unspecified), for which the melting point is 96 to 98 °C.

In the case of `CC1CC1C(=O)NCCC(=O)O` (stereo unspecified), the melting point was 94 to 96 °C.

For `CCOC(=O)C1=C(C)NC(C)=C(C(=O)O)C1c1cccc([N+](=O)[O-])c1` (stereo unspecified), the melting point was 199 to 201 °C.

`COc1ccc(CNC(=O)CCl)cc1`: the melting point lay within 103 to 105 °C.

For the compound `Nc1cc(F)ccc1S(N)(=O)=O`, the melting point lay within 129 to 131 °C.

In the case of `NNc1ccc([N+](=O)[O-])cn1`, the melting point is 194 to 196 °C.

Regarding `Cc1csc(Sc2ccc(N)c(C)c2)n1`, the melting point was in the range of 61 to 63 °C.

The compound `CN1CCN(c2ncc(C=O)cn2)CC1` registered a melting point of 90 to 92 °C.

As for `NC(=O)c1ccn(-c2ccccc2)n1`, the melting point was 149 to 151 °C.

With `Nc1nc2c(C(F)(F)F)cccc2s1`, the melting point fell in the range of 48 to 50 °C.

As for `CCOC(=O)c1sc(NC(=O)CCl)c(C(=O)OC(C)(C)C)c1C`, the melting point fell in the range of 148 to 150 °C.

`N#Cc1cccc(C(=O)NN)c1` showed a melting point of 166 to 168 °C.

`COc1ccc(N)cc1NC(=O)C1CCCCC1` yielded a melting point of 147 to 149 °C.

With `CC(C)C(Oc1ccccc1Br)C(=O)O` (stereo unspecified), the melting point lay within 63 to 65 °C.

`Nc1nnc(-c2cccc([N+](=O)[O-])c2)o1` yielded a melting point of 256 to 258 °C.

For `Nc1onc(-c2ccccc2)c1-c1ccccc1`, the melting point was in the range of 144 to 146 °C.

In turn, `CC1Cc2ccccc2N1S(=O)(=O)c1ccc(F)c(C(=O)O)c1` (stereo unspecified) registered a melting point of 200 to 202 °C.

For `O=C(O)/C=C/c1nc2ccccc2o1`, the melting point was in the range of 223 to 225 °C.

Turning to `COc1ccc(Br)c(C(N)=S)c1`, the melting point fell in the range of 142 to 144 °C.

The compound `NNC(=O)c1cc(-c2ccc(Cl)cc2)nc2ccccc12` displayed a melting point of 238 to 240 °C.

For orientation: melting point means the temperature of the solid-liquid transition.
